{"source": "patent US20100016228A1", "about": "“TRUNCATED BARD1 PROTEIN, AND ITS DIAGNOSTIC AND THERAPEUTIC USES” (Ayanda Biosystems SA, priority 2000, published 2010)", "molecules": {"B1": {"name": "BARD1 fragment: F1 fragment (amino acids 460-611) of rat BARD1 with N-terminal 6xHis tag, expressed in E. coli (protein, listed as Rattus norvegicus)", "chain": "SHGHLKIVELLLQHNALVNTTGYHNDSPLHDAAKNGHIDIVKVLLSHGASRNAVNIFGERPVDYTDAENIRSLLLLPEKTDSFSTSQCSVQVNTGQRKSGPLVLIGSGLSSQQQKLLSKLETVLKAKKCAEFDNTVTHVIVPDEEAQSTLKC", "modifications": "N-terminal 6xHis tag", "notes": "F1 fragment (amino acids 460-611) of rat BARD1 with N-terminal 6xHis tag, expressed in E. coli"}}, "key": {"[1]": {"tested_on": "human BARD1 protein (SEQ ID NO:1)", "test": "in vitro cleavage of 35S-labeled human BARD1 by NaB-treated SW48 cell extracts, inhibition by protease inhibitors", "format": "biochemical", "description": "(§1) The human BARD1 protein (SEQ ID NO:1), labeled with ^35S-methionine, was transcribed and translated in vitro using the TNT coupled reticulocytes lysate system kit (Promega). 1 μg of plasmid was used in a reaction medium for the transcription and the translation, containing 4 μl of ^35S-methionine (NEN). For the in vitro cleavage, 2 μl of transcription/translation products were incubated with apoptotic or nonapoptotic cell extracts prepared in a DIV buffer (20 mM HEPES. PH 7.5, 10 mM NaCl, 1.5 mM MgCl2, 0.1% SB14, 0.5 mM PMSF) at 37° C. for the period of time indicated. […] Inhibition of the cleavage was evaluated by adding caspase inhibitors or a proteasome inhibitor (lactacystine) (Calbiochem) or the calpain inhibitor I (ALLnL) (Chemicon).\nTo define the proteolytic activity responsible for the cleavage of hBARD1 (SEQ ID NO:1), various preparations of cell extracts from SW48 cells treated with NAB were tested. It appears that both the nuclear preparations and the mitochondrial preparations were capable of cleaving hBARD1 (SEQ ID NO:1). The supernatant at 13,000×g of the organelle preparation had no effect."}, "SW48 cells": {"tested_on": "SW48 cells", "test": "NaB treatment of SW48 cells: induction of BARD1 and calpastatin cleavage", "format": "cell-based, human", "details": "SW48 cells treated with NaB", "description": "Apoptosis was induced by treatment with sodium butyrate (NaB). The cells at different stages of confluence were treated in complete medium at 37° C. and with 5 mM of NaB (Sigma) for various periods of time. The apoptotic bodies were purified as previously described (Gautier et al., 1999):\nas §1\nThe SW48 cells were arrested in G0 by contact inhibition in 175 cm^2 flasks. After confluencing for 3 days, the cells were split 1:10 in 75 cm^2 flasks at a concentration of 3×10^6 cells per flask. 12, 20, 28, 36 and 44 hours after seeding, the cells were treated with 5 mM of NaB for 24 hours and collected. To determine the cell cycle distribution at each time, the content of each flask was subjected to trypsinization, washed three times in 10 ml of ice-cold PBS, and fixed with 1 ml of ice-cold 70% ethanol, added dropwise, for 16 hours at −20° C. The fixed cells were pelletted, resuspended in 500 μl of PC buffer (96% 0.2M Na2HPO4, 4% 15 0.1M citric acid, pH 7.8) and left at ambient temperature for 30 minutes. They were then washed and resuspended in 500 μl of propidium iodide in a staining solution (PBS, 0.12% Triton X-100, 0.12 mM EDTA, 100 μg/ml RNase A), incubated for 30 minutes at 37° C. and analyzed on a FACScan (flow cytometer) (Beckton Dickinson). […]"}, "caspases 3, 6 and 8": {"tested_on": "caspases 3, 6 and 8", "test": "caspase activity in extracts of NaB-treated SW48 cells (fluorogenic substrates)", "format": "cell-based, human", "details": "during NaB treatment of SW48 cells; caspase 3 most active after 6 and 12 hours", "description": "For assaying the caspase activity, 10 μg of cell extracts were diluted in 5 μl of DIV buffer:\nAcetyl-Asp-Glu-Val-Asp-7-amino-4-methylcoumarin (Ac-DEVD-AMC), acetyl-Val-Glu-Ile-Asp-7-amino-4-methylcoumarin (Ac-VEID-AMC) and […] (Bachem), substrates for caspases 3, 6 and 8, respectively, were added at a final concentration of 50 μM. The cleavage activity was controlled on Fluorolite 1000 (Dynatech laboratories)."}, "PROb tumors": {"tested_on": "PROb tumors", "test": "vaccination of BDIX rats, then subcutaneous PROb tumor challenge", "format": "in vivo", "details": "three weekly intraplantar injections of 100 μg in complete Freund's adjuvant; PROb cells s.c. two weeks after final immunization; versus control protein (fucosyl transferase)", "description": "Two groups of BDIX rats were given three weekly intraplantar injections of 100 μg of F1 fragment (amino acids 460-611) of BARD1 (SEQ ID NO:9) or of a controlled protein (fucosyl transferase) purified under the same conditions as the F1 fragment. The proteins were emulsified in 100 μl of complete Freund's adjuvant. Two weeks after the final immunization, the rat colon tumor cells (PROb, 50×10^3/rat) were injected subcutaneously and the volume of the PROb tumors was estimated."}}, "note": "Like-named read-outs stand apart in the source and are kept apart here. Non-standard residues stand in square brackets, D forms with d. Residues, ends and D or L forms follow the SMILES beside them. Nle = CCCC[C@H](N)C(=O)O"}
{"molecule": "CCCC[C@@H](C=O)NC(=O)[C@H](CC(C)C)NC(=O)[C@H](CC(C)C)NC(C)=O", "note": "[ALLnL, N-acetyl-leu-leu-norleucinal] (Ac-Leu-Leu-[Nle]-aldehyde)", "values": [{"measurement": "inhibition of the hydrolysis of hBARD1", "setting": "[1]", "value": "inhibited"}, {"measurement": "inhibition of the hydrolysis of hBARD1", "setting": "[1]; dose-dependent manner", "value": "strongly inhibited"}]}
{"molecule": "O=C(O)CN(CCOCCOCCN(CC(=O)O)CC(=O)O)CC(=O)O", "note": "[EGTA]", "values": [{"measurement": "inhibition of the hydrolysis of hBARD1", "setting": "[1]", "value": "inhibited"}, {"measurement": "inhibition of the hydrolysis of hBARD1", "setting": "[1]; dose-dependent manner", "value": "strongly inhibited"}]}
{"molecule": "CCCC(=O)[O-].[Na+]", "note": "[NaB, sodium butyrate]", "values": [{"measurement": "treatment time after which BARD1 cleavage was virtually complete", "setting": "SW48 cells", "value": "~12", "unit": "h"}, {"measurement": "treatment time after which calpastatin was completely cleaved", "setting": "SW48 cells", "value": 12, "unit": "h"}, {"measurement": "treatment time after which the p67 protein appeared", "setting": "SW48 cells", "value": 4, "unit": "h"}, {"measurement": "activities of caspases 3, 6 and 8", "setting": "caspases 3, 6 and 8", "value": "gradually increased"}]}
{"molecule": "CC(=O)N[C@@H](CSC(=O)[C@]1([C@@H](O)C(C)C)NC(=O)[C@H](C)[C@@H]1O)C(=O)O", "note": "[lactacystine]", "values": [{"measurement": "blocking of the proteolysis of hBARD1", "setting": "[1]; even at concentrations of 100 μm", "value": "does not block"}]}
{"molecule": "benzyloxycarbonyl-Asp-Glu-Val-Asp-fluoromethylketone [Z-DEVD-frnk]", "values": [{"measurement": "inhibition of the hydrolysis of hBARD1", "setting": "[1]", "value": "no effect"}]}
{"molecule": "benzyloxycarbonyl-Val-Ala-Asp-fluoromethylketone [ZVAD-fmk]", "values": [{"measurement": "inhibition of the hydrolysis of hBARD1", "setting": "[1]; high concentration (100 μM)", "value": "slightly inhibited"}]}
{"molecule": "benzyloxycarbonyl-Val-Glu-Ile-Asp-fluoromethyl ketone [Z-VEID-fmk]", "values": [{"measurement": "inhibition of the hydrolysis of hBARD1", "setting": "[1]", "value": "no effect"}]}
{"molecule": "B1", "values": [{"measurement": "PROb tumor growth (tumor volume)", "setting": "PROb tumors", "value": "slowing down of tumor growth"}]}
